In patent US10137122B2, “Kinase inhibitors and methods of use thereof” (priority 2012, dated 2018):
Where two headings read alike, the source gives them in different places.

Columns and labels:
[1] = tested on: phospho-Tau (Ser199) in SH-SY5Y cells; experiment: Tau phosphorylation assay (phospho-Tau Ser199 ELISA); type: cell-based, human; settings: Homo sapiens, read-out: p-Tau Inhibition ELISA EC50 SH-SY5Y
Protocol: Tau Phosphorylation and Total Tau Assay
SH-SY5Y cells were maintained in DMEM supplemented with 10% heat-inactivated FBS and 1% penicillin-streptomycin (Invitrogen) unless otherwise stated. ELISA kits for phospho-Tau (Ser199) and total Tau detection were purchased from Invitrogen (KHB0041, and KHB7041 respectively). Briefly, SH-SY5Y cells were seeded at 50,000 cells/200 μL/well in 96 well plates and after overnight incubation, treated with various doses of chemical compounds at 0.2 μL/well. The next day cells were washed with PBS twice before being lysed in 100 μL Lysis buffer/well. 50 μL of cell lysate of each sample was transferred to an ELISA vial coated with the capture antibody, and the mixture was incubated at room temperature for 2 hours, before the supernatant was aspired, and each vial washed four times. 100 μL of detection antibody was then added to each well, incubated for 1 hour, and then washed four times. […] Data were scaled using the positive and neutral controls and fitted for IC50.
A standard protocol using an immunoassay kit to quantify total Tau protein and phospho-Tau (Ser199) protein in SH-SY5Y human neuroblastoma cells was employed. Human Tau (Total) ELISA kit (#KHB0041) and human phosphor-Tau (Ser199) ELISA kit were purchased from Invitrogen (#KHB7041)
50,000 cells were seeded in 200 μl per well in cell culture media (250,000 cells/ml). Cells were incubated overnight @37° C. Cells were induced with appropriate doses of inhibitors and incubated for approximately 24 hrs @37° C. Cell lysates were harvested by washing cells once with cold PBS and adding 100 μl cold lysis buffer and pipette up and down vigorously. Lysate was transferred to 96 well PCR plate and centrifuged at 4,000 rpm for 20 minutes at 4° C.
Well strips were warmed and inserted into the frame. 100μ of standard diluent buffer were loaded into ZERO wells, and 100 ul of each standard concentrations (both total Tau and pTau) were loaded into wells in duplicate. Samples were loaded to each well that would be analyzed for total Tau, 85 μl standard diluent buffer and 15 μl cell lysate were added. To each well that will be analyzed for pTau (Ser199) 50 μl standard diluent buffer+50 μl cell lysate were added. Plates were tapped gently on the side to mix. Certain wells were left empty for chromogen blank. Plates were covered and incubated for 2 hours at room temperature. Wells were aspirated 4 times (400 μl diluted wash buffer, left for 30 seconds, aspirated all wells; alternatively used automated plate washer and programmed in a 30 second hold between each cycle). 100 μl of detection antibody solution were added to each well except chromogen blanks. Anti-total Tau was added to wells being analyzed for total Tau, anti-pTau (Ser199) was added to wells being analyzed for pTau (Ser199), and plates were tapped gently on the side to mix. Plates were covered and incubated for 1 hour at room temperature, then wells were aspirated and washed 4 times as described above. 100 μl of anti-rabbit IgG HRP working solution (prepared ahead) were added to each well except chromogen blanks, and plates were covered and incubated for 30 minutes at room temperature, then wells were aspirated and washed 4 times as described above. 100 μl of stabilized chromogen were added to each well (the liquid turned blue). Plates were incubates for 30 minutes at room temperature in the dark, then 100 μl of stop solution were added to each well, and plates were tapped gently on the side to mix. Absorbance of each well was read at 450 nm (within 2 hours of adding stop solution).

[2] = tested on: TCF/LEF reporter in HEK293-pBARL cells; experiment: cells; settings: Homo sapiens
Protocol: HEK293-pBARL cells were derived from HEK293 cells and they stably expressed a firefly-luciferase reporter gene driven by a promoter containing 12 copies of TCF/LEF binding sequences. These cells were maintained in DMEM and supplemented with 10% FBS and 1% penicillin-streptomycin (Invitrogen). Reporter gene assays were conducted in anti-biotic free media. […] These cells also contained a renilla-luciferase reporter gene driven by the ubiquitous EF1α promoter as a control. HEK293-pBarl reporter cell lines were seeded into 384-well culture plates (Corning) at 6000 cells/well. 24 hours after plating, cells were treated overnight with relevant compounds and assayed using DualGlo assay kit (Promega). Luminescent intensities were read by EnVision (PerkinElmer, Waltham, Mass.). Firefly luciferase intensity is normalized by renilla luciferase intensity.
Cells were cultured in 384 well plates to appropriate density (40 μl total plating volume). 24 hours after plating, cells were treated with 100 nl compounds. 24 hours after incubation with compounds (48 hours after plating), assay reagents were prepared by mixing Luciferase Assay solution with Luciferase substrate and Stop & Glo solution to Stop & Glo substrate (extra reagents can be aliquoted and frozen for future use and are stable for at least one freeze/thaw cycle). […] The plate was spun down and 10 minutes were allowed for signal stabilization. Luciferase signal on the Perkin Elmer EnVision using the following parameters: Distance between plate & detector (mm)=0.2; Measurement time(s)=0.1; Glow (CT2) correction factor=0. Once the initial data is secure, a volume of Stop & Glo was added equal to each well equal to the volume of Luciferase reagent added above (If 10 μl Luciferase Reagent was added, 10 μl Stop & Glo was also added). The plate was spun down and 10 minutes were allowed for signal stabilization. The plate was read on the EnVision using the same parameters detailed above.

[3] = tested on: β-catenin nuclear translocation in U2-OS cells; experiment: β-Catenin nuclear localization assay; type: cell-based; settings: Homo sapiens, U2OS, read-out: beta-Catenin translocation EC50
Protocol: β-Catenin Nuclear Localization Assay
U2-OS cells stably expressing two complimentary β-galactosidase fragments (one part on β-Catenin and the other constitutively expressed in the cell nucleus) were maintained in DMEM F12 supplemented with 10% FBS. When β-catenin translocates to the nucleus, the complimentary fragments form a complete β-galactosidase, the amount of which is then quantified by β-galactosidase activity (DiscoveRx). Cells were seeded in a 384-well CulturPlate (Perkin Elmer, Boston, Mass.) with 10,000 per well in 20 μL DMEM F12 containing 10% FCS, 100 U/ml penicillin and 100 μg/mL streptomycin. After overnight incubation at 37° C., cells were stimulated with 100 nL test compound/well and then returned to the incubator for 6 h. Cells were disrupted using 12 μL substrate-containing lysis buffer from the PathHunter Detection Kit in the formulation specified by the supplier (DiscoveRx). Plates were incubated in the dark for 1 h at room temperature before measurement of β-galactosidase activity (luminescence) on an EnVision plate reader (PerkinElmer, Waltham, Mass.).

[4] = HEK293, read-out: TCF/LEF EC50 (μM)
[5] = HEK293, read-out: TCF/LEF EC50 (μM), HEK293 reporter cells

Row | SMILES | EC50 [2, 4] [µM] | further results
1 | COC(=O)c1[nH]nc2c1C(C)(c1ccccc1)C1=C(CC(C)(C)CC1=O)N2 (centres unmarked) [Compound 104] |  | EC50 ([1]; SH-SY5Y): 4.48 µM
2 | Cc1[nH]nc2c1C(c1ccc3c(c1)OCO3)C1=C(CC(C)(C)CC1=O)N2 (centres unmarked) [Compound 26, 4-(benzo[d][1,3]dioxol-5-yl)-3,7,7-trimethyl-6,7,8,9-tetrahydro-1H-pyrazolo[3,4-b]quinolin-5(4H)-one] | > 25 | 
3 | CCC1(c2ccccc2)C2=C(CC(C)(C)CC2=O)Nc2n[nH]c(C)c21 (racemic) [Compound 89, 9-ethyl-1,6,6-trimethyl-9-phenyl-5,6,7,9-tetrahydro-2H-pyrazolo[3,4-b]quinolin-8(4H)-one] |  | EC50 ([1]; SH-SY5Y): 22.2 µM
4 | COc1ccc(C2C3=C(CC(C)(C)CC3=O)Nc3n[nH]c(C)c32)cc1 (centres unmarked) [Compound 24, 4-(4-methoxyphenyl)-3,7,7-trimethyl-6,7,8,9-tetrahydro-1H-pyrazolo[3,4-b]quinolin-5(4H)-one] | > 25 | 
5 | Cc1[nH]nc2c1[C@H](c1ccccc1C(F)(F)F)C1=C(CC(C)(C)CC1=O)N2 (stereo in doubt) [Compound 28, 3,7,7-trimethyl-4-(2-(trifluoromethyl)phenyl)-6,7,8,9-tetrahydro-2H-pyrazolo[3,4-b]quinolin-5(4H)-one] | 4.8 | EC50 ([1]; SH-SY5Y): 1.8 µM; EC50 [3]: 6.32 µM
6 | Cc1[nH]nc2c1C(c1ccccc1F)C1=C(CC(C)(C)CC1=O)N2 (centres unmarked) [Compound 10, 4-(2-fluorophenyl)-3,7,7-trimethyl-6,7,8,9-tetrahydro-1H-pyrazolo[3,4-b]quinolin-5(4H)-one] | 12.7 | 
7 | Cc1[nH]nc2c1C(c1ccn[nH]1)C1=C(CC(C)(C)CC1=O)N2 (centres unmarked) [Compound 40, 3,7,7-trimethyl-4-(1H-pyrazol-5-yl)-6,7,8,9-tetrahydro-1H-pyrazolo[3,4-b]quinolin-5(4H)-one] | > 25 | 
8 | Cc1[nH]nc2c1C(c1ccc(Br)cn1)C1=C(CC(C)(C)CC1=O)N2 (centres unmarked) [Compound 39, 4-(5-bromopyridin-2-yl)-3,7,7-trimethyl-6,7,8,9-tetrahydro-1H-pyrazolo[3,4-b]quinolin-5(4H)-one] | > 25 | 
9 | COc1ccccc1[C@H]1C2=C(CC(C)(C)CC2=O)Nc2n[nH]c(C(F)(F)F)c21 [Compound 55, (S)-4-(2-methoxyphenyl)-7,7-dimethyl-3-(trifluoromethyl)-6,7,8,9-tetrahydro-2H-pyrazolo[3,4-b]quinolin-5(4H)-one] |  | EC50 [1]: > 30 µM; EC50 [3]: > 50 µM; EC50 [2, 5]: > 25 µM
10 | CSc1ccccc1C1C2=C(CC(C)(C)CC2=O)Nc2n[nH]c(C)c21 (centres unmarked) [Compound 25, 3,7,7-trimethyl-4-(2-(methylthio)phenyl)-6,7,8,9-tetrahydro-2H-pyrazolo[3,4-b]quinolin-5(4H)-one] | 4.34 | EC50 ([1]; SH-SY5Y): 2.85 µM; EC50 [3]: 10.9 µM
11 | Cc1[nH]nc2c1C(c1ccc(F)cc1Cl)C1=C(CC(C)(C)CC1=O)N2 (centres unmarked) [Compound 35, 4-(2-chloro-4-fluorophenyl)-3,7,7-trimethyl-6,7,8,9-tetrahydro-1H-pyrazolo[3,4-b]quinolin-5(4H)-one] | > 25 | 
12 | Cc1[nH]nc2c1C(c1ccsc1)C1=C(CC(C)(C)CC1=O)N2 (centres unmarked) [Compound 8, 3,7,7-trimethyl-4-(thiophen-3-yl)-6,7,8,9-tetrahydro-1H-pyrazolo[3,4-b]quinolin-5(4H)-one] | > 25 | 
13 | CC1(C)CC(=O)C2=C(C1)Nc1n[nH]c(C(F)(F)F)c1[C@@H]2c1ccccc1C(F)(F)F (stereo in doubt) [Compound 72, 7,7-dimethyl-3-(trifluoromethyl)-4-(2-(trifluoromethyl)phenyl)-6,7,8,9-tetrahydro-2H-pyrazolo[3,4-b]quinolin-5(4H)-one] | 1.49 | EC50 ([1]; SH-SY5Y): 0.426 µM
14 | Cc1[nH]nc2c1C(c1ccc(F)cc1)C1=C(CC(C)(C)CC1=O)N2 (centres unmarked) [Compound 12, 4-(4-fluorophenyl)-3,7,7-trimethyl-6,7,8,9-tetrahydro-1H-pyrazolo[3,4-b]quinolin-5(4H)-one] | > 25 | 
15 | Cc1[nH]nc2c1C(c1ccc(C#N)cc1)C1=C(CC(C)(C)CC1=O)N2 (centres unmarked) [Compound 34, 4-(3,7,7-trimethyl-5-oxo-4,5,6,7,8,9-hexahydro-2H-pyrazolo[3,4-b]quinolin-4-yl)benzonitrile] | > 25 | 
16 | Cc1[nH]nc2c1C(c1ccccn1)C1=C(CC(C)(C)CC1=O)N2 (centres unmarked) [Compound 36, 3,7,7-trimethyl-4-(pyridin-2-yl)-6,7,8,9-tetrahydro-1H-pyrazolo[3,4-b]quinolin-5(4H)-one] | > 25 | 
17 | COc1ccccc1C1C2=C(CC(C)(C)CC2=O)Nc2n[nH]c(C)c21 (racemic) [Compound 20, 4-(2-methoxyphenyl)-3,7,7-trimethyl-6,7,8,9-tetrahydro-1H-pyrazolo[3,4-b]quinolin-5(4H)-one] | 17.9 | EC50 ([1]; SH-SY5Y): 9.14 µM
18 | Cc1[nH]nc2c1C(c1cccs1)C1=C(CC(C)(C)CC1=O)N2 (racemic) [Compound 5, 3,7,7-trimethyl-4-(thiophen-2-yl)-6,7,8,9-tetrahydro-1H-pyrazolo[3,4-b]quinolin-5(4H)-one] | > 25 | 
19 | Cc1[nH]nc2c1C(c1cccnc1)C1=C(CC(C)(C)CC1=O)N2 (centres unmarked) [Compound 37, 3,7,7-trimethyl-4-(pyridin-3-yl)-6,7,8,9-tetrahydro-1H-pyrazolo[3,4-b]quinolin-5(4H)-one] | > 25 | 

Row | SMILES | EC50 [2, 4] [µM] | further results
20 | Cc1[nH]nc2c1[C@@H](c1ccccc1C#N)C1=C(CC(C)(C)CC1=O)N2 [Compound 32, 2-(3,7,7-trimethyl-5-oxo-4,5,6,7,8,9-hexahydro-2H-pyrazolo[3,4-b]quinolin-4-yl)benzonitrile] | 23.4 | 
21 | Cc1[nH]nc2c1[C@H](c1ccccc1Br)C1=C(CC(C)(C)CC1=O)N2 (racemic) [Compound 80, 4-(2-bromophenyl)-3,7,7-trimethyl-6,7,8,9-tetrahydro-2H-pyrazolo[3,4-b]quinolin-5(4H)-one] | 5.63 | 
22 | Cc1cccc(C2C3=C(CC(C)(C)CC3=O)Nc3n[nH]c(C)c32)c1 (centres unmarked) [Compound 18, 3,7,7-trimethyl-4-(m-tolyl)-6,7,8,9-tetrahydro-2H-pyrazolo[3,4-b]quinolin-5(4H)-one] | > 25 | EC50 [3]: > 50 µM
23 | CC1(C)CC(=O)C2=C(C1)Nc1n[nH]c(Br)c1C2(C)c1ccccc1 (centres unmarked) [Compound 111] |  | EC50 ([1]; SH-SY5Y): 2.98 µM
24 | COc1ccccc1C1C2=C(CC(C)(C)CC2=O)Nc2n[nH]c(C(F)(F)F)c21 (racemic) [Compound 53, 4-(2-methoxyphenyl)-7,7-dimethyl-3-(trifluoromethyl)-6,7,8,9-tetrahydro-2H-pyrazolo[3,4-b]quinolin-5(4H)-one] |  | EC50 [3]: 14 µM; EC50 [2, 5]: 16.9 µM
25 | Cc1[nH]nc2c1C(c1ccc(Cl)s1)C1=C(CC(C)(C)CC1=O)N2 (centres unmarked) [Compound 9, 4-(5-chlorothiophen-2-yl)-3,7,7-trimethyl-6,7,8,9-tetrahydro-1H-pyrazolo[3,4-b]quinolin-5(4H)-one] | > 25 | 
26 | COc1ccccc1[C@H]1C2=C(CC(C)(C)CC2=O)Nc2n[nH]c(C)c21 [Compound 21, 4-(2-methoxyphenyl)-3,7,7-trimethyl-6,7,8,9-tetrahydro-1H-pyrazolo[3,4-b]quinolin-5(4H)-one] | > 25 | EC50 ([1]; SH-SY5Y): > 30 µM
27 | COc1cccc(C2C3=C(CC(C)(C)CC3=O)Nc3n[nH]c(C)c32)c1 (centres unmarked) [Compound 23, 4-(3-methoxyphenyl)-3,7,7-trimethyl-6,7,8,9-tetrahydro-1H-pyrazolo[3,4-b]quinolin-5(4H)-one] | > 25 | 
28 | Cc1[nH]nc2c1C(c1ccc(Cl)cc1)C1=C(CC(C)(C)CC1=O)N2 (centres unmarked) [Compound 15, 4-(4-chlorophenyl)-3,7,7-trimethyl-6,7,8,9-tetrahydro-1H-pyrazolo[3,4-b]quinolin-5(4H)-one] | > 25 | 
29 | Cc1[nH]nc2c1C(c1ccc(C(F)(F)F)cc1)C1=C(CC(C)(C)CC1=O)N2 (centres unmarked) [Compound 31, 3,7,7-trimethyl-4-(4-(trifluoromethyl)phenyl)-6,7,8,9-tetrahydro-2H-pyrazolo[3,4-b]quinolin-5(4H)-one] | > 25 | EC50 [3]: > 50 µM
30 | Cc1ccc(C2C3=C(CC(C)(C)CC3=O)Nc3n[nH]c(C)c32)cc1 (centres unmarked) [Compound 19, 3,7,7-trimethyl-4-(p-tolyl)-6,7,8,9-tetrahydro-1H-pyrazolo[3,4-b]quinolin-5(4H)-one] | > 25 | 
31 | Cc1[nH]nc2c1C(c1cccc(Cl)c1)C1=C(CC(C)(C)CC1=O)N2 (centres unmarked) [Compound 14, 4-(3-chlorophenyl)-3,7,7-trimethyl-6,7,8,9-tetrahydro-1H-pyrazolo[3,4-b]quinolin-5(4H)-one] | 31.3 | 
32 | Cc1[nH]nc2c1C(c1ccccc1)(C(F)(F)F)C1=C(CC(C)(C)CC1=O)N2 (centres unmarked) [Compound 92, 1,6,6-trimethyl-9-phenyl-9-(trifluoromethyl)-5,6,7,9-tetrahydro-2H-pyrazolo[3,4-b]quinolin-8(4H)-one] |  | EC50 ([1]; SH-SY5Y): 20.4 µM
33 | Cc1[nH]nc2c1C(C)(c1ccccc1)C1=C(CC(C)(C)CC1=O)N2 (centres unmarked) [Compound 67, 3,4,7,7-tetramethyl-4-phenyl-6,7,8,9-tetrahydro-2H-pyrazolo[3,4-b]quinolin-5(4H)-one] | > 25 | 
34 | Cc1[nH]nc2c1C(c1cccc(F)c1)C1=C(CC(C)(C)CC1=O)N2 (centres unmarked) [Compound 11, 4-(3-fluorophenyl)-3,7,7-trimethyl-6,7,8,9-tetrahydro-1H-pyrazolo[3,4-b]quinolin-5(4H)-one] | > 25 | 
35 | CC1(C)CC(=O)C2=C(C1)Nc1n[nH]c(C(F)(F)F)c1[C@H]2c1ccccc1C(F)(F)F (stereo in doubt) [Compound 73, 7,7-dimethyl-3-(trifluoromethyl)-4-(2-(trifluoromethyl)phenyl)-6,7,8,9-tetrahydro-2H-pyrazolo[3,4-b]quinolin-5(4H)-one] | > 25 | EC50 ([1]; SH-SY5Y): 22 µM
36 | Cc1[nH]nc2c1C(c1ccncc1)C1=C(CC(C)(C)CC1=O)N2 (centres unmarked) [Compound 38, 3,7,7-trimethyl-4-(pyridin-4-yl)-6,7,8,9-tetrahydro-1H-pyrazolo[3,4-b]quinolin-5(4H)-one] |  | EC50 [2, 5]: > 25 µM
37 | CC1(C)CC(=O)C2=C(C1)Nc1n[nH]c(Cl)c1C2(C)c1ccccc1 (centres unmarked) [Compound 110] |  | EC50 ([1]; SH-SY5Y): 4.55 µM
